Format in all cases: cell-based
Assay [1] deals with strain mh314, microorganism classified into Labyrinthulae. Nature of the assay: Determination of DHA amount with C19:0 internal standard, strain mh314. Conditions: from ratio of peak area to C19:0 internal standard, control 0.21. The method, then: (§1) Thirty three strains of microorganisms which were isolated from mangrove woods or sea water around Ishigaki City, Okinawa Prefecture and classified into Labyrinthulae, were cultured in a GY medium (prepared according to the method as described in “NIPPON SUISAN GAKKAISHI” vol. 68, no. 5, 674-678 (2002); GY medium containing 3% glucose and 1% yeast extract was prepared with 50% artificial sea water and adjusted to pH 6.0; this was used as a liquid medium or a plate medium with 1.5% agar) at 28° C. for 4 days, to which was added 1μg/ml of curcumin (Nacalai Tesque, Inc.) as an inhibitor for a Δ6-fatty acid desaturase. […] The resulting total lipid was subjected to methanolysis with 10% hydrogen chloride/methanol solution, and the fatty acid composition was analyzed by gas chromatography (Shimadzu Corp.; Model GC-2014). […]
(§2) To the total lipid (about 40 mg) which was extracted from the cells cultured in Examples 1 and 2 was added 0.5mg of nonadecanoic acid (C19:0) as an internal standard substance; then, the fatty acid composition after methanolysis with 10% hydrogen chloride/methanol solution was analyzed by gas chromatography (Shimadzu Corp.; Model GC-2014). From the ratio of the peak area of each fatty acid including DHA to that of C19:0, the amount of each fatty acid was determined.

The subject of assay [2] is strain mh313, microorganism classified into Labyrinthulae. Nature of the assay: DHA percentage of fatty acid composition (gas chromatography) after culture with desaturase inhibitor, strain mh313. Conditions: GY medium, 28° C., 4 days, inhibitor added to medium (curcumin 1μg/ml), control 26.03. The method, then:
(§3) Thirty three strains of microorganisms which were isolated from mangrove woods or sea water around Ishigaki City, Okinawa Prefecture and classified into Labyrinthulae, were cultured in a GY medium (prepared according to the method as described in “NIPPON SUISAN GAKKAISHI” vol. 68, no. 5, 674-678 (2002); GY medium containing 3% glucose and 1% yeast extract was prepared with 50% artificial sea water and adjusted to pH 6.0; this was used as a liquid medium or a plate medium with 1.5% agar) at 28° C. for 4 days, to which was added 1μg/ml of curcumin (Nacalai Tesque, Inc.) as an inhibitor for a Δ6-fatty acid desaturase. After termination of the culture, the microorganism was collected by centrifugal separation (1500×g, 10 min), and the cells were destroyed by ultra-sonication and extracted by chloroform/methanol (2:1; by v/v) to yield the total lipid. The resulting total lipid was subjected to methanolysis with 10% hydrogen chloride/methanol solution, and the fatty acid composition was analyzed by gas chromatography (Shimadzu Corp.; Model GC-2014). In a control, the same operation as mentioned above was made with no addition of curcumin. […]

The subject of assay [3] is strain mh295, microorganism classified into Labyrinthulae. The experiment in a line: Determination of DHA amount with C19:0 internal standard, strain mh295. Conditions: from ratio of peak area to C19:0 internal standard, control 0.45. The method, then:
as §1, §2

Assay [4] has the same test system. The experiment in a line: DHA percentage of fatty acid composition (gas chromatography) after culture with desaturase inhibitor, strain mh295. Conditions: GY medium, 28° C., 4 days, inhibitor added to medium (curcumin 1μg/ml), control 19.19. The method, then:
as §3

The subject of assay [5] is strain mh313, microorganism classified into Labyrinthulae. Nature of the assay: Determination of DHA amount with C19:0 internal standard, strain mh313. Conditions: from ratio of peak area to C19:0 internal standard, control 0.56. The method, then: as §1, §2
Assay [6] relates to strain mh314, microorganism classified into Labyrinthulae. Nature of the assay: DHA percentage of fatty acid composition (gas chromatography) after culture with desaturase inhibitor, strain mh314. Conditions: GY medium, 28° C., 4 days, inhibitor added to medium (curcumin 1μg/ml), control 13.27. As for the experimental part: as §3
The test system of assay [7] is strain mh375, microorganism classified into Labyrinthulae. Nature of the assay: DHA percentage of fatty acid composition (gas chromatography) after culture with desaturase inhibitor, strain mh375. Conditions: GY medium, 28° C., 4 days, inhibitor added to medium (curcumin 1μg/ml), control 26.02. The method, then: as §3
For assay [8] the test system is unchanged. The experiment in a line: Determination of DHA amount with C19:0 internal standard, strain mh375. Conditions: from ratio of peak area to C19:0 internal standard, control 0.39. The method, then: as §1, §2
Assay [9] relates to microorganism classified into Labyrinthulae. The experiment in a line: Content of docosahexaenoic acid in fats and oils produced versus control (summary statements). Conditions: culture with inhibitor versus no inhibitor. As for the experimental part: as §1, §2

Take `COc1cc(/C=C/C(=O)CC(=O)/C=C/c2ccc(O)c(OC)c2)ccc1O` [Example 1, curcumin]: the “amount of DHA” value in [1] worked out at 0.66 g/L; in [3] it was 0.67 g/L; in [5], 0.71 g/L; in assay [8], 1 g/L. For the same molecule, the “percentage of the peak area of docosahexaenoic acid” value in [2] turned out to be 31.05%; in assay [4], 22.32%; in assay [6] it was 27.23%; in assay [7], 33.77%. The “content of docosahexaenoic acid in the fats and oils produced, in comparison with that of the control” value in assay [9] was “significantly increased”.
As for `c1cc2c(cc1[C@H]1OC[C@H]3[C@@H]1CO[C@@H]3c1ccc3c(c1)OCO3)OCO2` [Example 2, sesamin], the “amount of DHA” value in assay [1] is recorded as 0.82 g/L; in [3], 0.98 g/L; in assay [5], 1.45 g/L; in [8] it was 0.64 g/L. Moreover, the “percentage of the peak area of docosahexaenoic acid” value in assay [2] is given as 42.32%; in assay [4] it was 21.47%; in assay [6] it was 22.31%; in assay [7] it was 29.96%. Also, the “content of docosahexaenoic acid in the fats and oils produced, in comparison with that of the control” value in [9] is on record as “significantly increased”.

Values taken from patent US20130096332A1, “METHOD FOR INCREASING THE CONTENT OF DOCOSAHEXAENOIC ACID IN FAT-CONTAINING MATERIALS OR IN FATS AND OILS” (NIPPON SUISAN KAISHA, LTD., priority 2007, published 2013).
